According to ChEMBL document CHEMBL1122084, “Relative affinity of 17 alpha- and/or 21-esters and 17 alpha, 21-diesters of cortisol for a glucocorticoid receptor from rat thymocytes” (J Med Chem, 1982):

Target: T1, Glucocorticoid receptor (Rattus norvegicus) (UniProt P06536)
T1 sequence (whole entry): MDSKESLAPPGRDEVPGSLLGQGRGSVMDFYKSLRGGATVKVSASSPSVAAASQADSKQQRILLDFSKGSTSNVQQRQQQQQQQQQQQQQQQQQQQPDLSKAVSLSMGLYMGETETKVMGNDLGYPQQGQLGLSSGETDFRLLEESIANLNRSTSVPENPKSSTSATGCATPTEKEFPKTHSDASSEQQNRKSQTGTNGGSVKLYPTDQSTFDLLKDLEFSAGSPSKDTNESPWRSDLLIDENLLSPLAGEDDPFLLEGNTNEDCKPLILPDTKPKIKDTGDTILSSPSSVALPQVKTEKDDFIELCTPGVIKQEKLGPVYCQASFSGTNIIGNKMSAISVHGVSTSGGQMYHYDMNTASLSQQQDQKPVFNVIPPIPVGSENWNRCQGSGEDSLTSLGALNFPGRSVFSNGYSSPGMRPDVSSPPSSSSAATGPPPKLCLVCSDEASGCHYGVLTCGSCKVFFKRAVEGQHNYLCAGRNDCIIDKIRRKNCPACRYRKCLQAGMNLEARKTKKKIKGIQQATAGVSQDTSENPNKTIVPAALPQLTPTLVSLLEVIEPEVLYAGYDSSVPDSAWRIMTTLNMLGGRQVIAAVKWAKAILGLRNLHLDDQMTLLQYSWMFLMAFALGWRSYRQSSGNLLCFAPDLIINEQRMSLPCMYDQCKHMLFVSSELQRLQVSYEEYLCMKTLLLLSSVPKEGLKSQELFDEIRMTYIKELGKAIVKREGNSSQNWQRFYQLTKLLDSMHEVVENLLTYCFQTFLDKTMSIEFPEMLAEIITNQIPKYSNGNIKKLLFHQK
Assay: Relative binding affinity for glucocorticoid receptor of rat thymus cytosol by displacement of [3H]dexamethasone compared to cortisol

Relative binding affinity	Structure (SMILES)
11.5	CCCCC(=O)O[C@]1(C(=O)CO)CCC2C3CCC4=CC(=O)CCC4(C)C3C(O)CC21C (stereo partly drawn)
12.4	CCCC(=O)O[C@]1(C(=O)CO)CC[C@H]2[C@@H]3CCC4=CC(=O)CC[C@]4(C)[C@H]3[C@@H](O)C[C@@]21C
0.32	CCCCC(=O)OCC(=O)[C@@]1(O)CCC2C3CCC4=CC(=O)CCC4(C)C3C(O)CC21C (stereo partly drawn)
1.14	CC(=O)O[C@]1(C(=O)CO)CCC2C3CCC4=CC(=O)CCC4(C)C3C(O)CC21C (stereo partly drawn)
0.046	CC(=O)OCC(=O)[C@@]1(O)CC[C@H]2[C@@H]3CCC4=CC(=O)CC[C@]4(C)[C@H]3[C@@H](O)C[C@@]21C

Further lines, the compound ahead of its results:

Structure (SMILES)	Relative binding affinity
CC(=O)OCC(=O)[C@@]1(OC(C)=O)CCC2C3CCC4=CC(=O)CCC4(C)C3C(O)CC21C (stereo partly drawn)	0.036
CCC(=O)OCC(=O)[C@@]1(OC(C)=O)CCC2C3CCC4=CC(=O)CCC4(C)C3C(O)CC21C (stereo partly drawn)	0.093
CCCCC(=O)OCC(=O)[C@@]1(OC(C)=O)CCC2C3CCC4=CC(=O)CCC4(C)C3C(O)CC21C (stereo partly drawn)	0.272
CCCCC(=O)O[C@]1(C(=O)COC(=O)CCC)CCC2C3CCC4=CC(=O)CCC4(C)C3C(O)CC21C (stereo partly drawn)	1.33
CCCCC(=O)O[C@]1(C(=O)COC(=O)CC)CCC2C3CCC4=CC(=O)CCC4(C)C3C(O)CC21C (stereo partly drawn)	1.17
CCCC(=O)OCC(=O)[C@@]1(OC(C)=O)CCC2C3CCC4=CC(=O)CCC4(C)C3C(O)CC21C (stereo partly drawn)	0.152
CCCCC(=O)O[C@]1(C(=O)COC(C)=O)CCC2C3CCC4=CC(=O)CCC4(C)C3C(O)CC21C (stereo partly drawn)	0.76

Target: T1, Glucocorticoid receptor (Rattus norvegicus)
Assay: Relative binding affinity for glucocorticoid receptor of rat thymus cytosol by displacement of [3H]dexamethasone

Structure (SMILES)	Relative binding affinity
C[C@]12CCC(=O)C=C1CC[C@@H]1[C@@H]2[C@@H](O)C[C@@]2(C)[C@H]1CC[C@]2(O)C(=O)CO	1
